US5681833A, “Benzodiazepine derivatives” (Merck, Sharp & Dohme Ltd., priority 1992, dated 1997)
Where two headings read alike, the source gives them in different places.

Experiments:
CCK receptor (pancreas) = biological target: T1, CCK receptor (pancreas) (Rattus norvegicus, UniProt P30551); experiment: CCK Receptor Binding (Pancreas), inhibition of specific 125I-CCK-8 binding; design: species or system rat (male Sprague-Dawley)
T1 construct: The whole pancreas was dissected free of fat tissue and was homogenized; from tissue; host or cells: whole pancreas of male Sprague-Dawley rats, homogenate membranes
T1 sequence (P30551 1-444): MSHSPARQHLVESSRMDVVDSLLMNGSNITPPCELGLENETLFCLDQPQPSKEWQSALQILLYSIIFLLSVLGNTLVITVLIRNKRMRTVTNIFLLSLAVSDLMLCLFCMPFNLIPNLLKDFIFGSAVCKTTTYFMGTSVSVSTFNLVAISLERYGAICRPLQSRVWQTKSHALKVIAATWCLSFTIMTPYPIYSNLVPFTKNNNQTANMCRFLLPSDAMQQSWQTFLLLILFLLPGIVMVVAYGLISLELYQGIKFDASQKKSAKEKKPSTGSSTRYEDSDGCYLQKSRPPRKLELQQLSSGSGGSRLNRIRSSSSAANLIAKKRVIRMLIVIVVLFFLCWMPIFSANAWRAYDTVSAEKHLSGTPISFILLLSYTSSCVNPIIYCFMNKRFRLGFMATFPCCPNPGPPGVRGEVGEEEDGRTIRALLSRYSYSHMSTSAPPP
Protocol: 1. CCK Receptor Binding (Pancreas)
CCK-8 sulphated was radiolabelled with ^125 I-Bolton Hunter reagent (2000 Ci/mmole). Receptor binding was performed according to Chang and Lotti (Proc. Natl. Acad. Sci. 83, 4923-4926, 1986) with minor modifications.
Male Sprague-Dawley rats (150-200 g) were sacrificed by decapitation. The whole pancreas was dissected free of fat tissue and was homogenized in 25 volumes of ice-cold 10 mM N-2-hydroxyethyl-piperazine-N'-2-ethane sulphonic acid (HEPES) buffer with 0.1% soya bean trypsin inhibitor (pH 7.4 at 25° C.) with a Kinematica Polytron. The homogenates were centrifuged at 47,800 g for 10 min. Pellets were resuspended in 10 volumes of binding assay buffer (20 mM (HEPES)), 1 mM ethylene glycol-bis-(β-aminoethylether-N,N'-tetraacetic acid) (EGTA), 5 mM MgCl2, 150 mM NaCl, bacitracin 0.25 mg/ml, soya bean trypsin inhibitor 0.1 mg/ml, and bovine serum albumin 2 mg/ml pH 6.5 at 25° C.) using a Teflon (trademark) homogenizer, 15 strokes at 500 rpm. The homogenate was further diluted in binding assay buffer to give a final concentration of 0.5 mg original wet weight/1 ml buffer. […] All assays were run in duplicate. The reaction mixtures were incubated at 25° C. for 2 hours and the reaction terminated by rapid filtration (Brandell 24 well cell harvester) over Whatman GF/C filters, washing 3×4 mls with ice-cold 100 Mm NaCl. The radioactivity on the filters was counted with a LKB gamma counter.

CCK receptor (brain) = biological target: T2, CCK receptor (brain) (Cavia porcellus, UniProt H0VZC5); experiment: CCK Receptor Binding (Brain), inhibition of specific 125I-CCK-8 binding; design: species or system guinea pig (male Hartley)
T2 construct: the cortex was removed and homogenized in 25 mL ice-cold 0.32M sucrose; from tissue; host or cells: cortex of male Hartley guinea pigs, P2 membranes
T2 sequence (H0VZC5 1-426): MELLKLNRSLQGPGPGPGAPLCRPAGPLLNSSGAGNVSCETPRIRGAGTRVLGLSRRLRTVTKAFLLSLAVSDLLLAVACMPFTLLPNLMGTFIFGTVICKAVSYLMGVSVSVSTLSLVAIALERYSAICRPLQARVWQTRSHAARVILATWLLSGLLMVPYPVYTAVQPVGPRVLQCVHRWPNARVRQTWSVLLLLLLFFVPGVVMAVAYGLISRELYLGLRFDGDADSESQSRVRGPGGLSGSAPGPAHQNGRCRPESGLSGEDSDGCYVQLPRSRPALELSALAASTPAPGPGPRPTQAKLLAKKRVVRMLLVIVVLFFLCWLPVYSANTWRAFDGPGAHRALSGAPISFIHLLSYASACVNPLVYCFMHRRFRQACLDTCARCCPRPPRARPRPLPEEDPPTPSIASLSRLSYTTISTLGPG
Protocol: 2. CCK Receptor Binding (Brain)
CCK-8 sulphated was radiolabelled and the binding was performed according to the description for the pancreas method with minor modifications.
Male Hartley guinea pigs (300-500 g) were sacrificed by decapitation and the cortex was removed and homogenized in 25 mL ice-cold 0.32M sucrose. The homogenates were centrifuged at 1000 g for 10 minutes and the resulting supernatant was recentrifuged at 20,000 g for 20 minutes. The P2 pellet was resuspended in binding assay buffer (20mM HEPES, 5 mM MgCl2, 0.25 mg/ml bacitracin, 1 mM EGTA pH 6.5 at 25° C.), using a Teflon (trademark) homogenizer (5 strokes at 500 rpm) to give a final concentration of 10 mg original wet weight/1.2 ml buffer. […] All assays were run in duplicate. The reaction mixtures were incubated at 25° C. for 2 hours and then the reaction was terminated by rapid filtration (Brandell 24 well cell harvester) on Whatman GF/C filters with 3×5 ml washes of cold 100 mM NaCl. The radioactivity on the filters was counted with a LKB gamma counter.

[1] = rat pancreas membranes, 50 pM 125I-CCK-8, 25° C., 2 hours, pH 6.5, read-out: IC50 125I-CCK Pancreas
[2] = guinea pig cortex membranes, 50 pM 125I-CCK-8, 25° C., 2 hours, pH 6.5, read-out: IC50 125I-CCK Brain

| IC50 (CCK receptor (pancreas); [1]) [nM] | IC50 (CCK receptor (brain); [2]) [nM] | Structure (SMILES) | IC50 (CCK receptor (pancreas)) [nM] | IC50 (CCK receptor (brain)) [nM] |
| --- | --- | --- | --- | --- |
| 9.5 | 0.82 | CN1C(=O)C(NC(=O)Nc2cccc(CNc3nnn[nH]3)c2)N=C(C2CCCCC2)c2ccccc21 (racemic) [Example 1, N-[3(R,S)-5-Cyclohexyl-2,3-dihydro-1-methyl-2-oxo-1H-1,4-benzodiazepin-3-yl]-N'-[3-{(tetrazol-5-yl)aminomethyl}phenyl]urea] | – | – |
| 109 | 14 | CCCN1C(=O)C(NC(=O)Nc2cccc(CNc3ncc[nH]3)c2)N=C(C2CCCCC2)c2ccccc21 (racemic) [Example 18, N-[3(R,S)-5-Cyclohexyl-2,3-dihydro-2-oxo-1-propyl-1H-1,4-benzodiazepin-3-yl]N'-[3-[(1H-imidazol-2-ylamino)methyl]phenyl]urea] | – | – |
| 84.5 | 33.9 | CN1C(=O)C(NC(=O)Nc2cccc(CNc3ncc[nH]3)c2)N=C(C2CCCCCC2)c2ccccc21 (racemic) [Example 20, N-[3(R,S)-5-Cycloheptyl-2,3-dihydro-1-methyl-2-oxo-1H -1,4-benzodiazepin-3-yl]N'-[3-[(1H-imidazol-2-ylamino)methyl]phenyl]urea] | – | – |
| 400 | 0.1 | CN1C(=O)[C@H](NC(=O)Nc2cccc(N(C)c3nnn[nH]3)c2)N=C(C2CCCCC2)c2ccccc21 [Example 4, (+)-N-[3(R)-5-Cyclohexyl-2,3-dihydro-1-methyl-2-oxo-1H-1,4-benzodiazepin-3-yl]-N'-[3-{N-methyl-N-(tetrazol-5-yl)amino}phenyl]urea] | – | – |
| 200 | 0.7 | CN1C(=O)[C@H](NC(=O)Nc2cccc(Nc3nnn[nH]3)c2)N=C(C2CCCCC2)c2ccccc21 [Example 5, (+)-N-[3(R)-5-Cyclohexyl-2,3-dihydro-1-methyl-2-oxo-1H-1,4-benzodiazepin-3-yl]-N'-[3-{(tetrazol-5-yl)amino}phenyl]urea] | – | – |
| 153 | 0.284 | CN1C(=O)[C@H](NC(=O)Nc2cccc(CNc3nnn[nH]3)c2)N=C(C2CCCCC2)c2ccccc21 [Example 6, (+)-N-[3(R)-5-Cyclohexyl-2,3-dihydro-1-methyl-2-oxo-1H-1,4-benzodiazepin-3-yl]-N'-[3-{(tetrazol-5-yl)aminomethyl}phenyl]urea] | – | – |
| 802 | 0.042 | Cc1ccc(NC(=O)N[C@@H]2N=C(C3CCCCC3)c3ccccc3N(C)C2=O)cc1Nc1nnn[nH]1 [Example 10, (+)-N-[3(R)-5-Cyclohexyl-2,3-dihydro-1-methyl-2-oxo-1H-1,4-benzodiazepin-3-yl]-N'-[4-methyl-3-{(tetrazol-5-yl)amino}phenyl]urea] | – | – |
| 600 | – | Cc1ccc(NC(=O)N[C@@H]2N=C(C3CCCCC3)c3ccccc3N(C)C2=O)cc1N(C)c1nn[nH]n1 [Example 11, (+)-N-[3(R)-5-Cyclohexyl-2,3-dihydro-1-methyl-2-oxo-1H-1,4-benzodiazepin-3-yl]-N'-[4-methyl-3-{N-methyl-N-(tetrazol-5-yl)amino}phenyl]urea] | – | – |

The remaining lines, values behind:

| Structure (SMILES) | IC50 (CCK receptor (pancreas); [1]) [nM] | IC50 (CCK receptor (brain); [2]) [nM] | IC50 (CCK receptor (pancreas)) [nM] | IC50 (CCK receptor (brain)) [nM] |
| --- | --- | --- | --- | --- |
| CN1C(=O)C(NC(=O)Nc2cccc(Nc3nnn[nH]3)c2)N=C(C2CCCCC2)c2ccccc21 (racemic) [Example 2, N-[3(R,S)-5-Cyclohexyl-2,3-dihydro-1-methyl-2-oxo-1H-1,4-benzodiazepin-3-yl]-N'-[3-{(tetrazol-5-yl)amino}phenyl]urea] | 6.5 | 0.31 | – | – |
| CN1C(=O)C(NC(=O)Nc2cccc(N(C)c3nnn[nH]3)c2)N=C(C2CCCCC2)c2ccccc21 (racemic) [Example 3, N-[3(R,S)-5-Cyclohexyl-2,3-dihydro-1-methyl-2-oxo-1H-1,4-benzodiazepin-3-yl]-N'-[3-{N-methyl-N-(tetrazol-5-yl)amino}phenyl]urea] | 10 | 0.11 | – | – |
| CN1C(=O)C(C)(NC(=O)Nc2cccc(CNc3nnn[nH]3)c2)N=C(c2ccccc2)c2ccccc21 (racemic) [Example 15, N-[3-(R,S)-2,3-Dihydro-1,3-dimethyl-2-oxo-5-phenyl-1H-1,4-benzodiazepin-3-yl]-N'-[3-{(tetrazol-5-yl)aminomethyl}phenyl]urea] | – | 1300 | 42.8 | – |
| Cc1ccc(NC(=O)NC2N=C(c3ccccc3)c3ccccc3N(C(C)(C)C)C2=O)cc1Nc1nnn[nH]1 (racemic) [Example 16, N-[3(R,S)-1-tert-Butyl-2,3-dihydro-2-oxo-5-phenyl-1H-1,4-benzodiazepin-3-yl]-N'-[4-methyl-3-{(tetrazol-5-yl)amino}phenyl]urea] | – | 497 | 3610 | – |
| CCCN1C(=O)C(NC(=O)Nc2cccc(Nc3ncc[nH]3)c2)N=C(C2CCCCC2)c2ccccc21 (racemic) [Example 19, N-[3(R,S)-5-Cyclohexyl-2,3-dihydro-2-oxo-1-propyl-1H-1,4-benzodiazepin-3-yl]N'-[3-[(1H-imidazol-2-yl)amino]phenyl]urea] | 1.33 | 82.9 | – | – |
| CCCN1C(=O)C(NC(=O)Nc2cccc(N(C)c3nnn[nH]3)c2)N=C(N2CCN(C)CC2)c2ccccc21 (single isomer, unassigned; (-)) [Example 17, (-)-N-[2,3-Dihydro-5-(4-methylpiperazin-1-yl)-2-oxo-1-propyl-1H-1,4-benzodiazepin-3-yl]-N'-[3-{N-methyl-N-(tetrazol-5-yl)amino}phenyl]urea] | > 3000 | 0.93 | – | – |
| CN1C(=O)[C@H](NC(=O)Nc2cccc(N(C)c3nn[nH]n3)c2)N=C(c2ccccc2)c2ccccc21 [Example 7, (+)-N-[3(R)-2,3-Dihydro-1-methyl-2-oxo-5-phenyl-1H-1,4-benzodiazepin-3-yl]-N'-[3-{N-methyl-N-(tetrazol-5-yl)amino}phenyl]urea] | – | – | > 3000 | 0.575 |
| CN1C(=O)[C@H](NC(=O)Nc2cccc(Nc3nn[nH]n3)c2)N=C(c2ccccc2)c2ccccc21 [Example 8, (+)-N-[3(R)-2,3-Dihydro-1-methyl-2-oxo-5-phenyl-1H-1,4-benzodiazepin-3-yl]-N'-[3-{(tetrazol-5-yl)amino}phenyl]urea] | – | – | > 3000 | 5.7 |
| CN1C(=O)[C@H](NC(=O)Nc2cccc(CNc3nn[nH]n3)c2)N=C(c2ccccc2)c2ccccc21 [Example 9, (+)-N-[3(R)-2,3-Dihydro-1-methyl-2-oxo-5-phenyl-1H-1,4-benzodiazepin-3-yl]-N'-[3-{(tetrazol-5-yl)aminomethyl}phenyl]urea] | – | – | > 3000 | 7.4 |
| CN1C(=O)[C@H](NC(=O)Nc2ccc3c(c2)N(c2nn[nH]n2)CC3)N=C(c2ccccc2)c2ccccc21 [Example 14, (+)-N-[3(R)-2,3-Dihydro-1-methyl-2-oxo-5-phenyl-1H-1,4-benzodiazepin-3-yl]-N'-[1-(tetrazol-5yl)indolin-6-yl]urea] | – | – | – | 0.11 |
